One molecule from US20090050143A1, “MEDICINAL FORMULATION CONTAINER WITH A TREATED METAL SURFACE” (priority 2006, published 2009) can be followed below.

The nature of series [1]: Drug adsorption to aluminum MDI canister on storage. The series is classed as physicochemical. The following applies: 3 days at room temperature. As for the experimental part: The internal surface of an aluminum metered dose inhaler canister was treated with compound A1 (n-C4F9—(CH2)11—PO3H2) which may be prepared as described in Example 2 of U.S. Pat. No. 6,824,882, the disclosure of which is hereby incorporated by reference) as follows. The canister was initially soaked in heptane (analytical reagent grade) for 30 minutes while exposed to ultrasonic agitation. The canister was then rinsed with heptane (analytical reagent grade) for one minute followed by a rinse with isopropanol (analytical reagent grade) and allowed to air dry. The canister was then immersed in a 0.1% w/w solution of A1 in methyl tertiary butyl ether (analytical reagent grade) for 30 minutes while exposed to ultrasonic agitation. The canister was then rinsed in methyl tertiary butyl ether (analytical reagent grade) for one minute and allowed to air dry.
Fluticasone propionate was added to HFA-134A propellant to prepare a medicinal formulation with a fluticasone propionate concentration of 0.0083% w/w. Approximately 13 g of medicinal formulation was added to the treated canister which was sealed with an untreated aluminum blind ferrule (i.e., a casing member lacking valve components). The canister was stored in an upright position after filling to prevent contact of the medicinal formulation with the untreated aluminum surface of the blind ferrule. The solution was stored in the canister for 3 days at room temperature. The amount of fluticasone propionate adsorbed to the canister was 2.4% (+/−1.1%) measured according to the method described above.
A canister was prepared and tested as described in Example 1 with the exception that the canister was filled with a 0.0083% w/w formulation of fluticasone propionate in HFA-227. The solution was stored in the canister for 3 days at room temperature. The amount of fluticasone propionate adsorbed to the canister was 9.7% (+/−6.5%) measured according to the method described above.
An untreated aluminum canister was filled with the medicinal formulation of Example 1. The solution was stored in the canister for 3 days at room temperature. The amount of fluticasone propionate adsorbed to the canister was 23.2% (+/−1.5%) measured according to the method described above.
An untreated aluminum canister was filled with the medicinal formulation of Example 2. The solution was stored in the canister for 3 days at room temperature. The amount of fluticasone propionate adsorbed to the canister was 35.5% (+/−1.8%) measured according to the method described above.

The nature of series [2]: Total drug content of canisters filled from stainless steel filling system (HPLC). It counts as physicochemical. The conditions noted are these: 0.0083% w/w suspension in HFA-227a. The protocol: The vessel was initially soaked in heptane (analytical reagent grade) for 30 minutes while exposed to ultrasonic agitation. The vessel was then rinsed with heptane (analytical reagent grade) for one minute followed by a rinse with isopropanol (analytical reagent grade) and allowed to air dry. The vessel was then immersed in a 0.1% w/w solution of A1 in methyl tertiary butyl ether (analytical reagent grade) for 30 minutes while exposed to ultrasonic agitation. The vessel was then rinsed in methyl tertiary butyl ether (analytical reagent grade) for one minute and allowed to air dry. Additional components of the filling system that contact medicinal formulation during the filling process (solenoid, tubing, stirring paddles, mixing baffles) were treated in the same manner as the vessel.
HFA-227a (600.7 g) was chilled and added to the filling vessel. […] The total drug content (i.e., drug suspended in formulation, as well as drug adhered to the canister) of 6 representative canisters (numbers 9, 11, 13, 14, 16, and 18 in the filling sequence) was analyzed using high performance liquid chromatography. A target total drug content was calculated based on the exact amount of formulation added to each canister and the nominal concentration in the filling vessel. […]

Turning to `CCC(=O)O[C@]1(C(=O)SCF)[C@H](C)C[C@H]2[C@@H]3C[C@H](F)C4=CC(=O)C=C[C@]4(C)[C@@]3(F)[C@@H](O)C[C@@]21C` [fluticasone propionate], the “amount of fluticasone propionate adsorbed to the canister” value is 2.4% in series [1] (A1-treated aluminum canister, 0.0083% w/w in HFA-134A); 9.7% in series [1] (A1-treated aluminum canister, 0.0083% w/w in HFA-227); 23.2% in series [1] (untreated aluminum canister, 0.0083% w/w in HFA-134A); 35.5% in series [1] (untreated aluminum canister, 0.0083% w/w in HFA-227). The “average total drug content in the filled canisters, less than the target total drug content” value worked out at 2% in series [2] (A1-treated stainless steel filling system, 6 canisters) and 58% in series [2] (untreated stainless steel filling system).
